Consider two compounds from patent publication EP0297946A2, “Cytochalasin purification methods and compositions” (priority 1987, dated 1989).

For data set [1], the system named is P388 murine leukemia cells (drug-resistant line). Put plainly: cells. In kind it is cell-based. The settings on record: Mus musculus. As to the method: ICs for cytochalasins and antineoplastic agents were determined by inoculating wells containing cultured cells with dilutions of the desired compound, and the resulting exposed cell viability determined at a fixed timepoint after exposure (i.e., 20 or 48 hours). The concentration of the compound that is found to inhibit 50% of the initial cells cultured is the IC50 of that compound with respect to those cells. The IC90 and IC100s can similarly be determined.
Inhibitory concentrations ("ICs") of ADR, CA, and CB on P388 murine leukemia cells (drug-resistant line) were determined as follows.
Cells (5 X 10⁴) were plated out in 200 uL of RPMI 1640 medium containing 10% calf serum. CB, CA, and ADR were added to wells as follows to determine inhibitory concentration as follows: 8 wells were inoculated with dilutions of CB: 0.00 uM CB, 1.00 uM CB, 2.00 uM CB, 4.00 uM CB, 10.00 uM CB, 20.00 uM, 40.00 uM CB, and 80.00 uM CB. […]
All wells were incubated at 37°C, in 5% CO₂ for 3 hours, after which time the plate was centrifuged at 600 X g for 5 minutes, the drug medium removed and replaced with 200 uL of fresh RPMI 1640 medium, containing 10% calf serum, centrifuged again at 600 X g, and cells refed and incubated for 45 hours at 37°C, in 5% CO₂. After the 45 hour incubation, the cells were analyzed for viability using the MTT reduction assay as described in Alley et al.

Data set [2] deals with Madison 109 (M109) carcinoma. Put plainly: Madison 109 carcinoma tumor model in mice treated with a single bolus of CB. Type of data set: in vivo, CD2F₁ mice. As to the method:
For SC tumors, growth was monitored by calculating tumor weight according to the methods of Johnson et al. (1975, Cancer Chemo. Rep., 59(4):697-705). For IP and IV-induced tumors, growth was determined by host survival. Metastases were determined at necropsy by fixation of the organ in Bouins solution according to standard procedure, and metastatic foci counted under a dissecting microscope (see Table 1).
Madison 109 (M109) carcinoma was maintained in Balb/c and CD2F₁ mice by serial passage of 20% tumor brei (approximately 1X10⁶ total cells) in mice every 12 days according to the techniques of Rose (1981, Cancer Treat. Rep., 65:299-312). The CD2F₁ were implanted with 0.2 ml M109 SC ventrally on the abdomen. Tumor brei were prepared by excising the tumor from the passage mouse, removing any necrotic areas, weighing the tumor, mincing it, and suspending the fragments in 0.1 ml 20% (v/v) penicillin/streptomycin (Gibco) and 0.85% (w/v) sterile sodium chloride solution (total 1.0 ml/g tumor), and dispersed by repeated aspiration and expulsion through a syringe. The suspension was then diluted to 20% with 0.85% sterile sodium chloride and 0.2 ml was injected SC. Viability of the tumor suspension was about 20%, as determined by the standard trypan blue exclusion test.
The above procedure was repeated, administering the M109 tumor brei IV 90.1 ml) through the tail vein, or IP (0.2 ml).
Mice (6) were subcutaneously implanted with 1X10⁵ tumor cells as isolated in Example 4 on Day 0, and drug treatment was given on Day 1. CB (100 mg/kg mouse, or 0.2 ml of 10.0 mg/ml CB, per 20 gm mouse), suspended in CMC/Tw was administered to mice.
Lower tumor weight was detected in all the treated groups as compared to controls, although this difference lessened with advancing stage of tumor growth. […] No effect on reducing tumor metastases in the liver or spleen was detected with SC administration of CB.

The conditions of data set [3]: short-term exposure of about 2 hours; cited from earlier work.
The subject of data set [4] is P388 murine leukemia cells (P388/ADR). The data set is described as follows: P388/ADR cells in 24-well plates, 3 hours exposure, Coulter counting after 96 hours. Type of data set: cell-based. The settings on record: Mus musculus.
Protocol: P388 murine leukemia cells (P388/ADR) selected for multi-drug resistance to doxorubicin and other natural product anti-tumor agents, provided by the National Institutes of Health, were seeded at 5 X 10⁴ cells/ml in 24-well microtiter plates, 2.0 ml per well, in RPMI 1640 medium with 10% fetal calf serum and 10 uM mercaptoethanol. The cells were allowed to equilibrate and divide overnight at 37°C, in 5% CO₂, then treated in duplicate wells with ADR at 2.5, 5, 10, and 20 uM. Other duplicate wells were treated with CB at 2.5, 5, 7.5, 10, and 20 uM. Duplicate wells also contained the above amounts of ADR and CB, which were added to the cells simultaneously. […] After 3 hours of incubation at 37°C, the cells from each well were transferred to sterile centrifuge tubes, and the wells washed with 2.0 ml of sterile medium to assure full cell transfer. The tubes were centrifuged at 600 x g for 5 minutes, and the drug-medium decanted and discarded. The cells were then resuspended in 2.0 ml of fresh medium and plated into 24-well plates, incubated at 37° C for 96 hours, and cell viability and growth after treatment determined by Coulter counting.
Data set [5] can be described thus: Tissue distribution of CB in vivo after IP bolus injection, HPLC analysis of tissue extracts. The settings on record: 50 mg/kg IP single bolus. Set-up: species or system mice. As to the method: (§1) The maximum tolerated single bolus dose (MTD) of CB (LD₅₋₁₀) was estimated as a function of vehicle and route of administration, in M109 tumor-bearing, B16F10 tumor-bearing, and normal mice (Table 2). Both CD2F₁ and B6D2F₁ mice were tested. […] In tissue distribution studies of CB in vivo, 50 mg/kg (1000 ug/20 g mouse) was injected intraperitoneally and the distribution determined at time intervals thereafter as explained in Example 13. […] It is cleared from the spleen and pancreas by 12 hours, but persists in liver for 72 hours. Some CB is metabolized within the first few minutes after injection, but the remaining 35% persists in liver for up to 72 hours. Sustained release formulations such as liposomes would maintain active CB in tissues.
Livers of mice treated according to Examples 4, 5 and 6 were homogenized with a Brinkman polytron using 5.0 ml of methanol /g tissue. The homogenate was centrifuged at 5000g for 5 minutes. The supernatant was brought to 80% water using HPLC grade water and passed through Sep-Pak C-18 cartridges that had first been conditioned with 5.0 ml methanol, followed by 10.0 ml of distilled water. The cartridges were dried under vacuum and washed with 3.0 ml hexane (HPLC grade), and the CB recovered with 2.0 ml of EtOAc (HPLC grade). The elutes were evaporated under a stream of nitrogen and dissolved in 250 ul tetrohydrofuran (HPLC grade). Samples were filtered through a 0.45 um nylon syringe filter into a 50 ul sample loop. The samples were analyzed by HPLC, using a regular phase silica column, a solvent system of hexane:tetrahydrofuran (60:40), and analyzed at 230 nm. The lower limit of sensitivity was determined to be 1 ug per total extract since 20% was analyzed with a quantitative limit of 0.2 ug.

Data set [6] in a line: Maximum tolerated single bolus dose (MTD) of CB by vehicle and route of administration. Type of data set: in vivo, CD2F₁ mice. The settings on record: for MTD: mouse, in vivo. As to the method:
as §1
The vehicles used in the invention may be selected with regard to the intended route of administration and standard pharmaceutical practice. The preparations can be injected parenterally, for example, intra-arterially or intravenously. The preparations may also be administered via oral, subcutaneous, intraperitoneal, or intramuscular routes. For parenteral administration, they can be used, for example, in the form of a sterile pyrogen-free aqueous solution which may contain other solutes.
For example, in the present studies, 0.85% (wt/v) sterile sodium chloride solution, sterile pyrogen-free CM-cellulose (1%)Tween-20 (2%), 10% Intralipid (Cutter Laboratories), or 48% ethanol/sodium chloride (v/v) solution were used as vehicles. Liposomes can alternatively be used as a vehicle. In such cases, the CB can be entrapped by any of the methods known in the art for forming liposomes, mentioned hereinbelow, and administered by any of the above-named routes of administration.
The MTD of CB suspension in pyrogen-free carboxymethyl cellulose(1%)/Tween -20 (2%) was 100 mg/kg SC, 50 mg/kg IP, and 10 mg/kg IV when administered to CD2F₁ mice. In DMSO, the MTD was 25 mg/kg IP, and less than 100 mg/kg SC, and in 33% ethanol, 10 mg/kg IV. At doses of 100 -150 mg/kg CB administered SC in CMC/Tw to CD2F₁ mice that had sustained challenge 24 hr with M109 tumor cells implanted SC, appearance of measurable tumor nodules were delayed by 66%.
The maximum tolerated dose (MTD) of CB (50 mg/kg CB) by intraperitoneal administration was determined by the following procedure. A solution of CB as isolated by Example 2 was obtained by sonication of the CB in DMSO (to make a 25 mg/kg solution of CB) for 2 minutes in an ultrasonic bath at 80-90 Hz power.
The above procedure was repeated for CB in CM-cellulose/Tween 20 (CMC/Tw) vehicle (0.1 ml administered).
The above procedures were repeated for 25 and 100 mg/kg CB in DMSO, and for 100 mg/kg CB in CMC/Tw.
The maximum tolerated dose (MTD) of CB (150 mg/kg, in CMC/Tw) by subcutaneous administration over the peritoneal wall was determined by the procedure of Example 8.
The maximum tolerated dose (MTD) of CB (5 mg/kg) by intravenous administration was determined by the procedure of Example 7. The CB was suspended in 0.1 ml 95% ethanol/0.85% NaCl (1:2 v/v), heated to 37°C and administered via tail vein within 5 minutes of mixing.
The above procedure was repeated using 0.1 ml CM-Cellulose/Tween 20.
The above procedure was repeated using 10, 20, 40, and 50 mg/kg dose of CB with the CM-Cellulose/Tween 20 vehicle, and 10, 20, and 40 mg/kg CB with EtOH/NaCl.

Data set [7] deals with B16F10 tumor. Put plainly: Dose response against B16F10 tumor in mice, CB given peri-tumorally SC. Type of data set: in vivo. Here is the method:
CB (100 mg/kg) administered peri-tumorally delays the tumor appears from Day 7 to Day 18, when treatment is administered on Day 1.

Where [8] appears, read: CB on Day 1 or when the nodule was detected.

Values joined by “and” are separate entries in the source; they are usually repeats but may differ in a detail not shown here. Equal values may be shown once. Read-outs that look alike come from different tables or passages of the source.

The term IC50 denotes the concentration that gives 50% inhibition. As to `COc1cccc2c1C(=O)c1c(O)c3c(c(O)c1C2=O)C[C@@](O)(C(=O)CO)C[C@@H]3O[C@H]1C[C@H](N)[C@H](O)[C@H](C)O1` [ADR, doxorubicin, reference compound], the IC50 in data set [1] (3 hours exposure, viability by MTT after 45 hours, read-out: IC50) worked out at 3.5 µM.
As a reminder, the MTD is the highest dose tested that stayed within the study's limit of toxicity. A higher MTD goes with a wide tolerated range. In the case of `C=C1C(C)C2C(Cc3ccccc3)NC(=O)C23OC(=O)C=CC(O)CCCC(C)CC=CC3C1O` (stereo not drawn) [CB, cytochalasin B], in data set [2] (100 mg/kg CB SC at the time of tumor detection), the “lung tumor nodules (metastases) versus vehicle controls” value is recorded as “fewer lung tumor nodules”. The “delay of appearance of measurable tumor nodules” value in data set [2] (100-150 mg/kg CB SC in CMC/Tw, CD2F₁ mice, 24 hr after SC M109 challenge) is reported as 66%. The “animals tumor-free by Day 50” value in data set [2] (setting [8]) came out at 33%. Moreover, in data set [2] (setting [8]), the median survival time result is reported as “increased median survival time”. For the same compound, in data set [2] (IV tumor challenge, 50 mg/kg CB by the IP route), the “cytotoxic effects (life span)” value is “no cytotoxic effects were observed”. Besides, the “tumor metastases in the liver or spleen” value in data set [2] (SC administration of CB) is reported as “No effect”. For the same compound, the tumor growth rate entry in data set [2] (SC peri-tumorally on Day 1 or when a measurable nodule was observed (around Day 6)) is listed as “significant decrease in tumor growth rate”. The “effect on SC tumor” value in data set [2] (SC single bolus 24 hours after tumor challenge or when the tumor appeared (about day 6)) is “delay the appearance of measurable tumor nodules, to slow growth rate of the nodule to inhibit invasion, and to extend life span”. Moreover, the non-cytotoxic concentration entry in data set [3] is “up to 100 ug/ml and ≤ 200 uM”. In addition, the IC50 in data set [4] and in data set [1] was 35 to 40 µM throughout. The persistence in liver in data set [5] is 72 h. Moreover, the “time by which cleared from the spleen and pancreas” value in data set [5] was at most 12 h. The tissue distribution entry in data set [5] was “appears at the highest levels in liver, spleen, and pancreas”. Besides, the “remaining CB that persists in liver for up to 72 hours” value in data set [5] (some CB metabolized within the first few minutes) turned out to be 35%. Further, the “toxicity in DMSO relative to CM-Cellulose/Tween 20” value in data set [6] (IP administration (Example 8)) and in data set [6] (SC administration (Example 9)) was “approximately twice as toxic” in each case. Besides, the MTD in data set [6] (ip, CB suspension in carboxymethyl cellulose(1%)/Tween-20 (2%), single bolus, CD2F₁ mice) was 50 mg/kg; in data set [6] (ip, in DMSO), 25 mg/kg; in data set [6] (iv, CB suspension in carboxymethyl cellulose(1%)/Tween-20 (2%), single bolus, CD2F₁ mice) it was 10 mg/kg; in data set [6] (iv, in 33% ethanol), 10 mg/kg; in data set [6] (sc, CB suspension in carboxymethyl cellulose(1%)/Tween-20 (2%), single bolus, CD2F₁ mice), 100 mg/kg; in data set [6] (sc, in DMSO), below 100 mg/kg. The “sensitivity to CB of CD2F₁ as compared to B6D2F₁ mice” value in data set [6] (single bolus dose) is on record as “Slightly greater sensitivity”. For the same compound, the “day of tumor appearance” value in data set [7] (CB 100 mg/kg peri-tumorally on Day 1, without treatment Day 7) amounted to 18 days. Further, in data set [7] (CB administered subcutaneously), the “tumor nodule growth rate” value is “measurable effect”.
